In patent US7223770B2, “Tocopherol-modified therapeutic drug compounds” (priority 2003, dated 2007):
Counter-ions that a name gives are not always drawn. Like-named read-outs stand apart in the source and are kept apart here. Marks after values point to notes of the source that are not given here.

Legend:
[1] = test system: NCI-H460 (non-small cell lung); settings: NCI-H460 (NSCLC); value reported by NCI; cited from earlier work
HCT-15 (colorectal) [2] = settings: HCT-15 (COLON); value reported by NCI; cited from earlier work
OVCAR-3 (ovarian) [3] = settings: value reported by NCI; cited from earlier work
HCT-116 (colorectal) [4] = settings: HCT-116 (COLON); value reported by NCI; cited from earlier work
HT-29 (colorectal) [5] = settings: HT29 (COLON); value reported by NCI; cited from earlier work
[6] = assay type: physicochemical; settings: for Solubility in TPGS / Solubility in Vitamin E USP/NF: 65 °C; for Solubility in Tween 80 NF: 65 → Room Temp.; for Solubility in Acetonitrile / Solubility in Captex 300 EP / Solubility in Chloroform / Solubility in DMSO / Solubility in Ethanol Denatured / Solubility in Glycerin USP/EP/BP/JP / Solubility in Methanol / Solubility in Methylene dichloride / Solubility in PEG-400 NF / Solubility in Propylene Glycol, USP / Solubility in Soybean Oil USP: Room Temp.
Description: Compounds were dissolved in each solvent under constant stirring and temperature to saturation. The resulting solutions were centrifuged and the supernatant was analyzed by high performance liquid chromatography (HPLC).

[7] = In vitro stability of the lactone form in presence of human serum albumin; assay type: in vitro ADME; settings: saline buffered solution 10 mM pH 7.4, 4% human serum albumin, 37° C.; tested as SN2300 / SN2310 emulsion; FIG. 12
Text: High performance liquid chromatography with fluorescence detection was used to analyze the decrease in the concentration of the lactone form over time.

HCT-116 (colorectal) [8] = assay: In vitro cytotoxicity GI50, ALAMAR BLUE, 48 hours; assay type: cell-based; settings: HCT-116 (COLON), emulsion formulation diluted in cell media
Description: (§1) The cells were in contact with varying concentrations of the test article for a period of 48 hours. At the end of 48 hours, staining with ALAMAR BLUE was performed to determine the number of viable cells and calculate the degree of cellular growth inhibition as compared to a control group.

HCT-15 (colorectal) [9] = assay: In vitro cytotoxicity GI50, ALAMAR BLUE, 48 hours; assay type: cell-based; settings: HCT-15 (COLON), emulsion formulation diluted in cell media
Description: as §1

MCF-7 (breast) [10] = assay: In vitro cytotoxicity GI50, ALAMAR BLUE, 48 hours; assay type: cell-based; settings: emulsion formulation diluted in cell media
Description: as §1

OVCAR-3 (ovarian) [11] = assay: In vitro cytotoxicity GI50, ALAMAR BLUE, 48 hours; assay type: cell-based; settings: emulsion formulation diluted in cell media
Description: as §1

HT-29 (colorectal) [12] = assay: In vitro cytotoxicity GI50, ALAMAR BLUE, 48 hours; assay type: cell-based, human; settings: HT29 (COLON), emulsion formulation diluted in cell media
Description: as §1

[13] = test system: NCI-H460 (non-small cell lung); assay: In vitro cytotoxicity GI50, ALAMAR BLUE, 48 hours; assay type: cell-based, human; settings: NCI-H460 (NSCLC), emulsion formulation diluted in cell media
Description: as §1

[14] = Pharmacokinetics following intravenous administration in rats; assay type: in vivo, Sprague-Dawley rats; settings: for Clearance / MRT / t1/2 (elimination): Sprague-Dawley rats, bolus intravenous, emulsion, approximately 14 mg/kg, plasma; for Plasma elimination half-life, times longer than the commercially available analogs: rats, intravenous
Description: Blood samples were collected for up to 120 hours post dose via the jugular vein. […] A noncompartmental analysis was carried out using WinNonlin (v 4.1).
The term “elimination rate constant” refers to the fraction of drug eliminated per unit of time. With first-order elimination, the rate of elimination is directly proportional to the serum drug concentration. There is a linear relationship between rate of elimination and serum drug concentration. Although the amount of drug eliminated in a first-order process changes with concentration, the fraction of a drug eliminated remains constant.
The term “clearance” refers to a measure of the body's ability to eliminate drug and is a hypothetical volume of distribution of drug which is cleared per unit time (i.e., mL/min) by any pathway of drug removal. […] The term “volume of distribution” refers to a calculated volume of body fluid that would be required to dissolve the total amount of drug at the same concentration as that found in the blood. It is a proportionality constant relating the amount of drug in the body to the measured concentration in biological fluid (blood, plasma, serum).

HT-29 human tumor cells = assay: HT-29 Human Tumor Xenograft anti-tumor activity; assay type: in vivo, Athymic mice; settings: for Number of animals with no measurable tumor on Day 55 / Tumor Growth Delay (T − C) / Tumor Growth Inhibition (% T/C) / Tumors that had still not reached maximum pre-determined size: 15 mg/kg intravenous; for Tumor Growth Inhibition (% T/C): at Day 55
Description: HT-29 Human Tumor Xenograft. Athymic mice were subcutaneously implanted with 30–40 mg tumor fragments using 12-gauge trocar needles. A sufficient number of mice were implanted with fragments so tumors in narrow weight range (100–200 mg) were selected for the trial on staging day (SD). The animals selected with tumors in the proper size range were randomized into six groups of 10 animals and intravenously administered the following test compounds:
The tumor measurements were performed using a caliper (millimeters); the tumor volume was calculated based on the formula: (Length×width^2)/2=Volume (mm^3).

MCF-7 (breast) [15] = settings: value reported by NCI; cited from earlier work
[16] = rats, intravenous; literature value; cited from earlier work
[17] = q1dx5, fifty-five days after dose initiation

Structure (SMILES) | GI50 [1] [nM] | GI50 (HCT-15 (colorectal) [2]) [nM] | GI50 (OVCAR-3 (ovarian) [3]) [nM] | GI50 (HCT-116 (colorectal) [4]) [nM] | GI50 (HT-29 (colorectal) [5]) [nM] | Solubility in TPGS [6] [mg/g] | Solubility in Vitamin E USP/NF [6] [mg/g] | Solubility in Tween 80 NF [6] [mg/g] | Solubility in Acetonitrile [6] [mg/g] | Solubility in Captex 300 EP [6] [mg/g] | Solubility in Chloroform [6] [mg/g] | Solubility in DMSO [6] [mg/g] | Solubility in Ethanol Denatured [6] [mg/g] | Solubility in Glycerin USP/EP/BP/JP [6] [mg/g] | Solubility in Methanol [6] [mg/g] | Solubility in Methylene dichloride [6] [mg/g] | Solubility in PEG-400 NF [6] [mg/g] | Solubility in Propylene Glycol, USP [6] [mg/g] | Solubility in Soybean Oil USP [6] [mg/g] | Stability of the lactone form over time [7] | further results
CCc1c2c(nc3ccc(O)cc13)-c1cc3c(c(=O)n1C2)COC(=O)[C@]3(O)CC [SN38, 7-ethyl-10-hydroxycamptothecin] | 1.4 | 7.9 | 2.9 | 21 | 1 | – | – | – | – | – | – | – | – | – | – | – | – | – | – | – | –
CC[C@@]1(OC(=O)CCC(=O)Oc2c(C)c(C)c3c(c2C)CC[C@@](C)(CCC[C@H](C)CCC[C@H](C)CCCC(C)C)O3)C(=O)OCc2c1cc1n(c2=O)Cc2cc3ccccc3nc2-1 [SN2300] | – | – | – | – | – | >133.3 | >288.3 | 48.3 | 49.6 | 96.7 | >372.5 | >255.5 | 57.1 | 2.541 | 14.4 | >336.5 | 17.5 | 0.4633 | 45.2 | greater than that of camptothecin | GI50 (HCT-116 (colorectal) [8]): 449 nM; GI50 (HCT-15 (colorectal) [9]): 20000 nM; GI50 (MCF-7 (breast) [10]): 325 nM; GI50 column, result in words (Poor activity) (OVCAR-3 (ovarian) [11]): Poor; GI50 (HT-29 (colorectal) [12]): 434 nM; GI50 [13]: 43 nM; Clearance [14]: 0.135 mL/min/kg; MRT [14]: 9.40 h; t1/2 (elimination) [14]: 29.08 h; Plasma elimination half-life, times longer than the commercially available analogs [14]: approximately 30 times; Number of animals with no measurable tumor on Day 55 (HT-29 human tumor cells; q1dx5 (2 weeks)): 0/10; Tumor Growth Delay (T − C) (HT-29 human tumor cells; q1dx5 (2 weeks)): 8.5 days; Tumor Growth Inhibition (% T/C) (HT-29 human tumor cells; q1dx5 (2 weeks)): 79 % T/C; Number of animals with no measurable tumor on Day 55 (HT-29 human tumor cells; q3dx10): 0/10; Tumor Growth Delay (T − C) (HT-29 human tumor cells; q3dx10): 0 days; Tumor Growth Inhibition (% T/C) (HT-29 human tumor cells; q3dx10): 102 % T/C
CCc1c2c(nc3ccc(OC(=O)CCC(=O)Oc4c(C)c(C)c5c(c4C)CC[C@@](C)(CCC[C@H](C)CCC[C@H](C)CCCC(C)C)O5)cc13)-c1cc3c(c(=O)n1C2)COC(=O)[C@]3(O)CC [SN2310] | – | – | – | – | – | 27.6 | 398.2 | 2.7 | 3.1 | 4.4 | >97.0 | 30.5 | 4.2 | 2.8 | 3.8 | >99.7 | 0.017 | 3.2 | 3.3 | greater than that of camptothecin | GI50 (HCT-116 (colorectal) [8]): 119 nM; GI50 (HCT-15 (colorectal) [9]): 99 nM; GI50 (OVCAR-3 (ovarian) [11]): 83 nM; GI50 (HT-29 (colorectal) [12]): 91 nM; GI50 [13]: 4 nM; Clearance [14]: 0.112 mL/min/kg; MRT [14]: 5.15 h; t1/2 (elimination) [14]: 3.49 h; Plasma elimination half-life, times longer than the commercially available analogs [14]: ~3 times; Number of animals with no measurable tumor on Day 55 (HT-29 human tumor cells; q1dx5 (2 weeks)): 4/10; Tumor Growth Delay (T − C) (HT-29 human tumor cells; q1dx5 (2 weeks)): >28* days; Tumors that had still not reached maximum pre-determined size (HT-29 human tumor cells; q1dx5 (2 weeks)): *90% of tumors in this group had still not reached maximum pre-determined size.; Tumor Growth Inhibition (% T/C) (HT-29 human tumor cells; q1dx5 (2 weeks)): 4 % T/C; Number of animals with no measurable tumor on Day 55 (HT-29 human tumor cells; q3dx10): 8/10; Tumor Growth Delay (T − C) (HT-29 human tumor cells; q3dx10): >28* days; Tumors that had still not reached maximum pre-determined size (HT-29 human tumor cells; q3dx10): *90% of tumors in this group had still not reached maximum pre-determined size.; Tumor Growth Inhibition (% T/C) (HT-29 human tumor cells; q3dx10): 2 % T/C; Median tumor size (HT-29 human tumor cells; [17]): 126 mm^3; Mice with no measurable tumor (HT-29 human tumor cells; [17]): 40%; Mice with no measurable tumor (HT-29 human tumor cells; q3dx10, fifty-five days after dose initiation): 80%
CC[C@@]1(O)C(=O)OCc2c1cc1n(c2=O)Cc2cc3c(CN(C)C)c(O)ccc3nc2-1 [Topotecan, topotecan hydrochloride] | 19.9 | 501 | 251 | 39.8 | 125 | – | – | – | – | – | – | – | – | – | – | – | – | – | – | – | GI50 (MCF-7 (breast) [15]): 15.8 nM; Clearance [16]: 53.7 mL/min/kg; t1/2 (elimination) [16]: 1.06 h
